From ChEMBL document CHEMBL1137154, “Phenylethanolamine N-methyltransferase inhibition: re-evaluation of kinetic data” (Bioorg Med Chem Lett, 2004)

Target: T1, Phenylethanolamine N-methyltransferase (Homo sapiens, UniProt P11086)
T1 sequence (P11086 whole entry): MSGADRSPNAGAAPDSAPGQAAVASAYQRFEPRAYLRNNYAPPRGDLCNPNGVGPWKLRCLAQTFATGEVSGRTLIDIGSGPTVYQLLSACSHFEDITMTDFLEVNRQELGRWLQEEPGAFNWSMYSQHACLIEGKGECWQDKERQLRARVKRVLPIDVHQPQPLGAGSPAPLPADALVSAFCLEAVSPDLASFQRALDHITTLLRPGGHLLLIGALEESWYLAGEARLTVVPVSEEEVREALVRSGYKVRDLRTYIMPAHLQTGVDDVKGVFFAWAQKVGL
Test: Inhibitory binding affinity for phenylethanolamine N-methyl-transferase (PNMT)

CC(N)c1cccc(Cl)c1Cl (stereo unspecified)
Ki: 90 nM
